From publication PMC6264335, “Synthesis of Quinolin-2-one Alkaloid Derivatives and Their Inhibitory Activities against HIV-1 Reverse Transcriptase” (Molecules, 2011)
pIC50: −log10 of the molar value. Values joined by “and” are separate entries in the source; they are usually repeats but may differ in a detail not shown here. Equal values may be shown once.

molecular target: HIV-1 reverse transcriptase (RT); test: not given; parameters: method as in PMID 8778237; conditions: cited from earlier work

Question: With CC(C)=CCOc1c(CC=C(C)C)c(=O)[nH]c2ccccc12 [Compound 3] as the compound, how does the pIC50 read?
Answer: Its pIC50 is 5.10.

molecular target: recombinant HIV-1 RT (Human immunodeficiency virus type 1 group M subtype B, UniProt P04585); test: HIV-1 RT inhibitory assay (ELISA RT kit, Roche); conditions: IC50 (effective concentration that inhibits 50% of HIV-1 RT), mean of two independent experiments
Experimental: HIV-1 reverse transcriptase (RT) activity was measured using a commercially available ELISA RT kit (Roche) according to the instructions of the manufacturer. The compounds were incubated with DIG-labeled reaction mixture at 37 °C for 2 h, then anti-DIG-POD solution was added, followed by substrate ABTS.

Question: With O=c1cc(-c2ccccc2)c2cc(Cl)ccc2[nH]1 [Compound 5a, 6-Chloro-4-phenylquinolin-2(1H)-one] as the compound, how does the pIC50 read?
Answer: The pIC50 was < 4.00.

Question: With Cc1cc(C)cc(S(=O)(=O)c2cc(=O)[nH]c3ccc(Cl)cc23)c1 [Compound 4c2, 6-Chloro-4-(3,5-dimethylphenylsulfonyl)quinolin-2(1H)-one] as the compound, how does the pIC50 read?
Answer: Its pIC50 is 5.00.

Question: With O=c1cc(-c2ccccc2Cl)c2cc(Cl)ccc2[nH]1 [Compound 5c, 6-Chloro-4-(2-chlorophenyl)quinolin-2(1H)-one] as the compound, how does the pIC50 read?
Answer: The pIC50 was < 4.00.

Question: With O=c1cc(Oc2ccccc2)c2cc(Cl)ccc2[nH]1 [Compound 4d1, 6-Chloro-4-phenoxyquinolin-2(1H)-one] as the compound, how does the pIC50 read?
Answer: Its pIC50 is 5.52.

Question: With O=c1cc(Sc2ccccc2)c2cc(Cl)ccc2[nH]1 [Compound 4a1, 6-Chloro-4-(phenylthio)quinolin-2(1H)-one] as the compound, how does the pIC50 read?
Answer: The pIC50 was 5.25.

Question: With O=c1cc(S(=O)(=O)c2ccccc2)c2cc(Cl)ccc2[nH]1 [Compound 4c1, 6-Chloro-4-(phenylsulfonyl)quinolin-2(1H)-one] as the compound, how does the pIC50 read?
Answer: Its pIC50 is 4.31.

Question: With O=c1cc([S+]([O-])c2ccccc2)c2cc(Cl)ccc2[nH]1 (stereo not shown) [Compound 4b1, 6-Chloro-4-(phenylsulfinyl)quinolin-2(1H)-one] as the compound, how does the pIC50 read?
Answer: The pIC50 was 5.05.

Question: With Cc1cc(C)cc(Oc2cc(=O)[nH]c3ccc(Cl)cc23)c1 [Compound 4d2, 6-Chloro-4-(3,5-dimethylphenoxy)quinolin-2(1H)-one] as the compound, how does the pIC50 read?
Answer: Its pIC50 is 6.82.

Question: With O=c1cc(-c2ccccc2F)c2cc(Cl)ccc2[nH]1 [Compound 5b, 6-Chloro-4-(2-fluorophenyl)quinolin-2(1H)-one] as the compound, how does the pIC50 read?
Answer: The pIC50 was < 4.00.

Question: With Cc1cc(C)cc([S+]([O-])c2cc(=O)[nH]c3ccc(Cl)cc23)c1 (stereo not shown) [Compound 4b2, 6-Chloro-4-(3,5-dimethylphenylsulfinyl)quinolin-2(1H)-one] as the compound, how does the pIC50 read?
Answer: Its pIC50 is 5.59.

Question: With Cc1cc(C)cc(Sc2cc(=O)[nH]c3ccc(Cl)cc23)c1 [Compound 4a2, 6-Chloro-4-(3,5-dimethylphenylthio)quinolin-2(1H)-one] as the compound, how does the pIC50 read?
Answer: Its pIC50 is 6.68.

Question: With Cc1cc(C)cc(Sc2cc(=O)[nH]c3ccccc23)c1 [Compound 4a3, 4-(3,5-dimethylphenylthio)quinolin-2(1H)-one] as the compound, how does the pIC50 read?
Answer: The pIC50 was 4.89 and 4.74.
